# Measurements taken from PMC9917735, “Optimization of the Hemolysis Assay for the Assessment of Cytotoxicity” (International Journal of Molecular Sciences, 2023).
# Like-named read-outs stand apart in the source and are kept apart here.
# How the values were obtained:
# E. coli = conditions: E. coli
# mouse erythrocytes = conditions: AMPs 100 μM, 1 hour 37 °C, pos. 10% Triton X-100, neg. PBS, 3 x 2 replicates
# From the text: (§1) Cytotoxicity studies are important during characterization of novel compounds or materials intended for interactions within human biological systems in vivo. Evaluation of the extent to which the compound induces disruption of the membrane of erythrocytes (red blood cells), thereby causing release of cellular content, often constitutes an initial step in such cytotoxicity assessments. The assay used in this context is generally referred to as the hemolysis assay, which has the advantages of being cheap, accessible, and simple to perform. Blood is drawn from a human or an animal, and next, the washed erythrocytes are incubated together with the compound or material under investigation. If the compound causes hemolysis, hemoglobin (along with other cellular constituents) will be released into the supernatant.
# (§2) Blood from mice, rats, and rabbits was provided by the Department of Comparative Medicine at Oslo University Hospital (Marianne Aannestad). For mice and rats, the blood was collected from the heart by using 25 G and 21 G needles, respectively, whereas for rabbits, the blood was collected by free bleed through the ear using a yellow neoflon (24 G). All animals were wild type and anesthetized prior to the procedure.
# (§3) All blood was collected in Lithium Heparin tubes 4 mL (Greiner Bio-One, Kremsmünster, Austria) or Coagulation sodium citrate 3.2% tubes 3 mL (Greiner Bio-One).
# (§4) AMP 2 contained an N-terminal hexanoic acid moiety, whereas all peptides contained amidated C-termini. These three peptides were synthesized by Genscript Inc. (Piscataway, NJ, USA), and stock solutions of 1 mg/mL were made from the purchased powders. […] All peptides were diluted to yield a 100 μM final concentration in the hemolysis assays.
# (§5) Triton X-100 (T8787) and Tween-20 (P2287) detergents were purchased from Sigma Aldrich and diluted to obtain 10% stock solutions by weighing (w/v). A sodium Dodecyl Sulfate (SDS) 10% solution was purchased from Invitrogen (Waltham, MA, USA, 15553027). All subsequent dilutions annotated in figures were made from these stocks.
# (§6) As soon as possible after phlebotomy, the blood samples were centrifuged at 1700× g for 5 min. The supernatant was removed by aspiration and 2 mL of PBS pH 7 was added. The washing step was repeated three times or until the supernatant was clear. After final aspiration, the remaining pellet was diluted 1:100 in PBS pH 7 to obtain a 1% erythrocyte suspension (or 1:100, 1:50, and 1:20 for assays testing the effect of erythrocyte concentration). For experiments using whole blood, the washing steps were not performed, but downstream experimentation was identical. For experiments performed with 96-well plates, 50 μL of test compound, water, or detergent were mixed with 50 μL of blood sample (1% erythrocyte suspension or whole blood). For experiments using larger volumes, 250 μL of test compound, water, or detergent were mixed with 250 μL blood sample in an Eppendorf tube. Samples were subsequently incubated at 37 °C for 60 min (or 15, 30, 60, 90, or 120 min for assays evaluating the effect of incubation time). After incubation, the plates/tubes were centrifuged at 1700× g for 5 min, and then 50 μL of the supernatants were transferred to transparent, flat-bottom 96-well plates (Anicrin, A013418). Finally, absorption was measured at 405, 530, and 570 nm in a Victor Nivo Multimode microplate reader (Perkin Elmer, Waltham, MA, USA).
# rat erythrocytes = conditions: AMPs 100 μM, 1 hour 37 °C, pos. 10% Triton X-100, neg. PBS, 3 x 2 replicates
# From the text: as §1, §2, §3, §4, §5, §6
# rabbit erythrocytes = conditions: AMPs 100 μM, 1 hour 37 °C, pos. 10% Triton X-100, neg. PBS, 3 x 2 replicates
# From the text: as §1, §2, §3, §4, §5, §6
# rabbit whole blood = conditions: for Hemolysis ratio: rabbit whole blood, AMPs 100 μM, 1 hour 37 °C, 3 x 2 replicates
# From the text: as §1, §2, §3, §4, §5, §6
# human whole blood = conditions: for Calculated hemolysis ratio: human whole blood, peptides 100 μM, 60 min 37 °C, neg. PBS, 3 x 2 replicates
# [1] = test system: washed human erythrocytes; assay: Flow cytometry of treated erythrocytes with live/dead amine-reactive stain; format: cell-based; conditions: washed human erythrocytes treated 60 minutes, AMPs 100 μM, amine-reactive dye 488, flow cytometry 533/30 nm
# Method: Briefly, a 1% washed erythrocyte solution was diluted to ~10^5 cells/mL and 0.4% Trypan blue (1:1 ratio) was added before 10 μL of the stained cell suspension was added to the Countess cell counting chamber slide. After a 30 s incubation, the slide was inserted into the instrument for automatic cell counting.
# The Countess II automated cell counter (see above) was used to adjust the negative control sample to ~10^5 cells/mL and to subsequently dilute all samples by the same factor. Then, 0.5 μL of live/dead amine-reactive dye 488 (Fisher Scientific, Waltham, MA, USA) was added to 0.5 mL cell suspension and incubated for 30 min protected from light. Subsequently, the samples were washed twice with PBS pH 7 containing 1% bovine serum albumin (BSA), and finally resuspended in PBS pH 7 with 1% BSA. Cells were next counted, and the fluorescence measured using the 533/30 nm filter in an Accuri C6 flow cytometer (BD Biosciences, Franklin Lakes, NJ, USA).
# [2] = test system: washed human erythrocytes; assay: Hemolysis assay, washed human erythrocytes
compound,measurement,setting,value
CC[C@H](C)[C@H](NC(=O)[C@H](CC(C)C)NC(=O)[C@H](CCC(N)=O)NC(=O)[C@H](CC(C)C)NC(=O)[C@@H](NC(=O)[C@H](C)NC(=O)[C@H](CCCCN)NC(=O)[C@H](CCCCN)NC(=O)[C@H](CCCCN)NC(=O)[C@H](CCCCN)NC(=O)[C@H](CCCCN)NC(=O)[C@@H](NC(=O)[C@H](CCCNC(=N)N)NC(=O)[C@H](CCCCN)NC(=O)[C@@H](NC(=O)[C@H](CC(C)C)NC(=O)[C@H](Cc1ccc(O)cc1)NC(=O)[C@H](CCCNC(=N)N)NC(=O)CNC(=O)[C@H](CC(=O)O)NC(=O)[C@@H](NC(=O)[C@@H](N)CCSC)[C@@H](C)O)[C@@H](C)CC)C(C)C)C(C)C)C(=O)N[C@@H](CC(C)C)C(=O)N[C@@H](CCCCN)C(=O)N[C@@H](Cc1ccccc1)C(=O)N[C@@H](CC(C)C)C(N)=O [AMP 3],Minimum inhibitory concentration (E. coli),E. coli,4 µM
same,Hemolysis ratio,"mouse erythrocytes; Table S4: washed mouse erythrocytes, OD 405 nm",77.1 +/- 3.8%
same,Hemolysis ratio,"mouse erythrocytes; washed mouse erythrocytes, OD 530 nm",71.1 +/- 3.2%
same,Hemolysis ratio,"mouse erythrocytes; washed mouse erythrocytes, OD 570 nm",47.7 +/- 2.5%
same,Hemolysis ratio,"rat erythrocytes; Table S4: washed rat erythrocytes, OD 405 nm",29.5 +/- 8.2%
same,Hemolysis ratio,"rat erythrocytes; washed rat erythrocytes, OD 530 nm",30.7 +/- 13.1%
same,Hemolysis ratio,"rat erythrocytes; washed rat erythrocytes, OD 570 nm",31.1 +/- 12.7%
same,Hemolysis ratio,"rabbit erythrocytes; Table S4: washed rabbit erythrocytes, OD 405 nm",53.2 +/- 7.4%
same,Hemolysis ratio,"rabbit erythrocytes; washed rabbit erythrocytes, OD 530 nm",50.1 +/- 7.7%
same,Hemolysis ratio,"rabbit erythrocytes; washed rabbit erythrocytes, OD 570 nm",52.7 +/- 8.2%
same,Fold decrease of hemolytic effect in rabbit whole blood vs washed rabbit erythrocytes,"rabbit whole blood; cf. Tables S3 and S4, 100 μM",4 fold
same,Hemolysis ratio,"rabbit whole blood; OD 530 nm, pos. 10% SDS, neg. PBS",13.2 +/- 3%
same,Hemolysis ratio,"rabbit whole blood; OD 570 nm, pos. 10% Triton X-100, neg. PBS",13.1 +/- 3.2%
same,Calculated hemolysis ratio,"human whole blood; OD 405 nm (signal saturated), pos. 10% SDS",15.5 ± 7.1%
same,Calculated hemolysis ratio,"human whole blood; OD 530 nm, pos. 10% SDS",2.7%
same,Calculated hemolysis ratio,"human whole blood; OD 570 nm, pos. 10% Triton X-100 (table title; text says 10% SDS)",3.8%
same,Fold reduction in HR in human whole blood in comparison with washed erythrocytes measured at 405 nm,"human whole blood; whole blood HR with 10% SDS as positive control (Table 5) vs washed erythrocytes (Table 6), 100 μM",> 27 fold
same,Fluorescence intensity per cell of remaining intact cells (live/dead stain),[1],surprisingly high fluorescence intensity measurements per cell
same,Calculated hemolysis ratio,"[2]; 1% washed human erythrocytes, OD 530 nm, peptides 100 μM, 60 min 37 °C, pos. 10% Triton X-100, neg. PBS, 3 x 2 replicates",68.4 ± 15%
same,Calculated hemolysis ratio,"[2]; 1% washed human erythrocytes, OD 570 nm, peptides 100 μM, 60 min 37 °C, pos. 10% Triton X-100, neg. PBS, 3 x 2 replicates",65.7 ± 11.6%
same,Calculated Hemolysis (%),"[2]; 2% pooled human erythrocytes, AMPs 100 µM, 60 min 37 °C, 405 nm, pos. 10% Triton X-100, neg. PBS, 3 x 2 replicates",41.1 ± 3.2%
same,Calculated Hemolysis (%),"[2]; 5% pooled human erythrocytes, AMPs 100 µM, 60 min 37 °C, 405 nm, pos. 10% Triton X-100, neg. PBS, 3 x 2 replicates",45.7 ± 8.2%
same,Calculated hemolysis ratio,"[2]; Table 1: 1% human erythrocytes, 100 µM, 60 min 37 °C, OD 405 nm, pos. 10% Triton X-100, neg. PBS, mean ± SD, 3 experimental x 2 technical replicates",37 ± 5.1%
same,Calculated hemolysis ratio,"[2]; Table 2: pooled blood from all 10 individuals, 1% erythrocytes, AMPs 100 µM, 60 min 37 °C, 405 nm, pos. 10% Triton X, neg. PBS, 3 x 2 replicates",45.4 ± 4.8%
same,Calculated Hemolysis (%),"[2]; Table 3: 1% pooled human erythrocytes, AMPs 100 µM, 60 min 37 °C, 405 nm, pos. 10% Triton X-100, neg. PBS, 3 x 2 replicates",45.4 ± 4.8%
same,Calculated hemolysis ratio,"[2]; Table 4: incubation 60 min, 37 °C, 1% human erythrocytes, AMPs 100 µM, 405 nm, pos. 10% Triton X-100, neg. PBS, 3 biological x 2 technical replicates",64.6 ± 6.8%
same,Calculated hemolysis ratio,"[2]; Table 6: 1% washed human erythrocytes, OD 405 nm, peptides 100 μM, 60 min 37 °C, pos. 10% Triton X-100, neg. PBS, 3 x 2 replicates",73.5 ± 14.4%
same,Calculated hemolysis ratio,"[2]; human individual # 1, 1% erythrocytes, AMPs 100 µM, 60 min 37 °C, 405 nm, pos. 10% Triton X, neg. PBS, 3 x 2 replicates",36.4 ± 5%
same,Calculated hemolysis ratio,"[2]; human individual # 2, 1% erythrocytes, AMPs 100 µM, 60 min 37 °C, 405 nm, pos. 10% Triton X, neg. PBS, 3 x 2 replicates",39.3 ± 6%
same,Calculated hemolysis ratio,"[2]; human individual # 3, 1% erythrocytes, AMPs 100 µM, 60 min 37 °C, 405 nm, pos. 10% Triton X, neg. PBS, 3 x 2 replicates",49.4 ± 8.5%
same,Calculated hemolysis ratio,"[2]; human individual # 4, 1% erythrocytes, AMPs 100 µM, 60 min 37 °C, 405 nm, pos. 10% Triton X, neg. PBS, 3 x 2 replicates",43.6 ± 4.2%
same,Calculated hemolysis ratio,"[2]; human individual # 5, 1% erythrocytes, AMPs 100 µM, 60 min 37 °C, 405 nm, pos. 10% Triton X, neg. PBS, 3 x 2 replicates",38.3 ± 7.3%
same,Calculated hemolysis ratio,"[2]; human individual # 6, 1% erythrocytes, AMPs 100 µM, 60 min 37 °C, 405 nm, pos. 10% Triton X, neg. PBS, 3 x 2 replicates",45.7 ± 6.4%
same,Calculated hemolysis ratio,"[2]; human individual # 7, 1% erythrocytes, AMPs 100 µM, 60 min 37 °C, 405 nm, pos. 10% Triton X, neg. PBS, 3 x 2 replicates",37.7 ± 6.9%
same,Calculated hemolysis ratio,"[2]; human individual # 8, 1% erythrocytes, AMPs 100 µM, 60 min 37 °C, 405 nm, pos. 10% Triton X, neg. PBS, 3 x 2 replicates",45.6 ± 9.2%
same,Calculated hemolysis ratio,"[2]; human individual # 9, 1% erythrocytes, AMPs 100 µM, 60 min 37 °C, 405 nm, pos. 10% Triton X, neg. PBS, 3 x 2 replicates",42.1 ± 4.7%
same,Calculated hemolysis ratio,"[2]; human individual # 10, 1% erythrocytes, AMPs 100 µM, 60 min 37 °C, 405 nm, pos. 10% Triton X, neg. PBS, 3 x 2 replicates",50.3 ± 4.6%
same,Calculated hemolysis ratio,"[2]; incubated in polypropylene tubes, 1% washed human erythrocytes, peptides 100 μM, 60 min 37 °C, 405 nm, pos. 10% Triton X-100, neg. PBS, 3 x 2 replicates",57.5 ± 13.2%
same,Calculated hemolysis ratio,"[2]; incubated in polystyrene tubes, 1% washed human erythrocytes, peptides 100 μM, 60 min 37 °C, 405 nm, pos. 10% Triton X-100, neg. PBS, 3 x 2 replicates",66.7 ± 12.7%
same,Calculated hemolysis ratio,"[2]; incubation 15 min, 37 °C, 1% human erythrocytes, AMPs 100 µM, 405 nm, pos. 10% Triton X-100, neg. PBS, 3 biological x 2 technical replicates",54.8 ± 8.2%
same,Calculated hemolysis ratio,"[2]; incubation 30 min, 37 °C, 1% human erythrocytes, AMPs 100 µM, 405 nm, pos. 10% Triton X-100, neg. PBS, 3 biological x 2 technical replicates",56.6 ± 7.4%
same,Calculated hemolysis ratio,"[2]; incubation 90 min, 37 °C, 1% human erythrocytes, AMPs 100 µM, 405 nm, pos. 10% Triton X-100, neg. PBS, 3 biological x 2 technical replicates",63 ± 4.5%
same,Calculated hemolysis ratio,"[2]; incubation 120 min, 37 °C, 1% human erythrocytes, AMPs 100 µM, 405 nm, pos. 10% Triton X-100, neg. PBS, 3 biological x 2 technical replicates",74.3 ± 21.1%
same,Observed hemolytic properties (qualitative),[2]; reason for choice of the AMPs,high
same,Calculated hemolysis ratio,"[2]; total incubation volume 100 μL, 1% washed human erythrocytes, peptides 100 μM, 60 min 37 °C, 405 nm, pos. 10% Triton X-100, neg. PBS, 3 x 2 replicates",66.7 ± 12.7%
same,Calculated hemolysis ratio,"[2]; total incubation volume 500 μL, 1% washed human erythrocytes, peptides 100 μM, 60 min 37 °C, 405 nm, pos. 10% Triton X-100, neg. PBS, 3 x 2 replicates",72.7 ± 10.4%
